Data: patent publication US20260132129A1 (Genesis Therapeutics, Inc., priority 2022, published 2026)

Target: T1, PI3Kα H1047R (T47D cells) (Homo sapiens, UniProt P42336, H1047R)
T1 construct: endogenous in cells; host or cells: T47D cells
Assay: PI3Kα cellular assay: pAKT HTRF in T47D cells after EGF stimulation
Assay type: cell-based
Details: for IC50: T47D cells (PI3Kα H1047R), pAKT S473 HTRF, 1 hr compound, 20 ng/ml EGF 10 min
Summary of the method: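 pAKT read by HTRF in lysates of EGF-stimulated (20 ng/mL, 10 min) T47D H1047R cells. Before stimulation, serum-starved cells (16 h) received compound for 1 h at 37 °C, dosed from 10,000 nM down to 0.5 nM in 3-fold steps.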

T1 sequence (P42336 whole entry H1047R): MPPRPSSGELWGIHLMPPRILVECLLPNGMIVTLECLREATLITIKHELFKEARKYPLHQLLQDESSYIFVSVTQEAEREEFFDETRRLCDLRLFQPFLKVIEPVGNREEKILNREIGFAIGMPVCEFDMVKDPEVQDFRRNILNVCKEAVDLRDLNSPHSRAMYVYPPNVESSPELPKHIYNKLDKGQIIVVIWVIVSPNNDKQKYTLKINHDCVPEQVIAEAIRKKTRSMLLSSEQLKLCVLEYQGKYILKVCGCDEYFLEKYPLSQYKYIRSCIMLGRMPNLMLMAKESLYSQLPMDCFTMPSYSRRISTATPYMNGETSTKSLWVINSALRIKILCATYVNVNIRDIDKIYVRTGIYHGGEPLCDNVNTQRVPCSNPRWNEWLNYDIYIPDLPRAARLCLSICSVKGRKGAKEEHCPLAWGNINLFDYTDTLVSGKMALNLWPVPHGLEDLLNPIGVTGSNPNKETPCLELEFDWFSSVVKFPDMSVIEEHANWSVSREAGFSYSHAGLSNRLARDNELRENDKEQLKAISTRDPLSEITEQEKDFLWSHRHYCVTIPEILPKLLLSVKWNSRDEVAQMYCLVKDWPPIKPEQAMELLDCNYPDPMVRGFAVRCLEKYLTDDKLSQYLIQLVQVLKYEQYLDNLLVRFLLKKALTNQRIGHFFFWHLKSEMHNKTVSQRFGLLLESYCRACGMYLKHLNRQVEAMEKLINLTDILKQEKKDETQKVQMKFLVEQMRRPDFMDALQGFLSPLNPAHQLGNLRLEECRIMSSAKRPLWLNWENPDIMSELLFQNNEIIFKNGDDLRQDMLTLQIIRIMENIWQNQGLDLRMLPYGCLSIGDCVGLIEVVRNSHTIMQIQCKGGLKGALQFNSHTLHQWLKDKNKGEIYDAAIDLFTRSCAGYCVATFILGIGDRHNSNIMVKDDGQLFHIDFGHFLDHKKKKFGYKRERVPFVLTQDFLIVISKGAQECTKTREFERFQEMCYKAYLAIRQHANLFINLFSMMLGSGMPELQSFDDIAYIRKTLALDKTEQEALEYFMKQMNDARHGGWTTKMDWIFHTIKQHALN
T1 sequence (P27986 whole entry partner): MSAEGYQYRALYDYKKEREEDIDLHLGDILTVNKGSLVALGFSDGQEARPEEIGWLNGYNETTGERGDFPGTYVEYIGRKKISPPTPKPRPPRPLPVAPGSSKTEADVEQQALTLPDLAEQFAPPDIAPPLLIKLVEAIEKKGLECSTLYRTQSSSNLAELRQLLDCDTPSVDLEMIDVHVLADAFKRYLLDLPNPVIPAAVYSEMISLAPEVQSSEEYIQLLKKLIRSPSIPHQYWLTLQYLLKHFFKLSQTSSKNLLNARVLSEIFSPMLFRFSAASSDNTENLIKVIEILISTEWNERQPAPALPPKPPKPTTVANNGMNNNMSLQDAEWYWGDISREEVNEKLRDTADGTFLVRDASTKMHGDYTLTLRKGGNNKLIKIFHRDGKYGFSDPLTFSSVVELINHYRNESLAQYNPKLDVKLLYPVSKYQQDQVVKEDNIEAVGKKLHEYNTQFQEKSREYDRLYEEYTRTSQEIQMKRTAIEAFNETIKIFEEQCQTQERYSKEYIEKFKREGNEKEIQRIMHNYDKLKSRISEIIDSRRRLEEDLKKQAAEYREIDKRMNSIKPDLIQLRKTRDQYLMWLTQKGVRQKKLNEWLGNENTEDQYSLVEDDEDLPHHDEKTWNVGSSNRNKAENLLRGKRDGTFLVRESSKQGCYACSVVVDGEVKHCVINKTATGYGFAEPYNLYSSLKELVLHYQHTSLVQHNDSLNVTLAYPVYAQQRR

| SMILES | IC50 [nM] | T47D pAKT S473 HTRF IC50 (H1047R): T47D (H1047R) selectivity over SKBR3 (WT) |
| --- | --- | --- |
| Cc1cc([C@H](C)Nc2ccccc2C(=O)O)c2nc(-c3ccc4nc(NC(=O)C5CC5)nn4c3)cc(=O)n2c1 [Compound 521] | > 2000 | C (C denotes ≤5-fold) |
| CC(=O)N1CCC(c2cc(=O)n3cc(C)cc([C@@H](C)Nc4ccccc4C(=O)O)c3n2)CC1 [Compound 522] | > 2000 | C (C denotes ≤5-fold) |
| Cc1cc(C(C)Nc2ccccc2C(=O)O)c2nc(C3CCN(C(=O)C4(N)CC4)CC3)cc(=O)n2c1 (stereo not drawn) [Compound 524] | > 2000 | C (C denotes ≤5-fold) |
| Cc1cc([C@@H](C)Nc2ccccc2C(=O)O)c2nc(C3CCN(C(=O)C4(N)CC4)CC3)cc(=O)n2c1 [Compound 525] | > 2000 | C (C denotes ≤5-fold) |
| Cc1cc([C@H](C)Nc2ccccc2C(=O)O)c2nc(C3CCN(C(=O)C4(N)CC4)CC3)cc(=O)n2c1 [Compound 526] | > 2000 | C (C denotes ≤5-fold) |
| Cc1cc(C(C)Nc2ccccc2C(=O)O)c2nc(N3CCN(C(=O)CN)CC3)cc(=O)n2c1 (stereo not drawn) [Compound 527] | > 2000 | C (C denotes ≤5-fold) |
| Cc1cc([C@H](C)Nc2ccccc2C(=O)O)c2nc(N3CCN(C(=O)CN)CC3)cc(=O)n2c1 [Compound 528] | > 2000 | C (C denotes ≤5-fold) |
| Cc1cc(C(C)Nc2ccccc2C(=O)O)c2nc(N3CCN(C(=O)CCN)CC3)cc(=O)n2c1 (stereo not drawn) [Compound 529] | > 2000 | C (C denotes ≤5-fold) |
| Cc1cc(C(C)Nc2ccccc2C(=O)O)c2nc(N3CCN(CCC(N)=O)CC3)cc(=O)n2c1 (stereo not drawn) [Compound 530] | > 2000 | C (C denotes ≤5-fold) |
| Cc1cc([C@@H](C)Nc2ccccc2C(=O)O)c2nc([C@@H]3CCOC3)cc(=O)n2c1 [Compound 538] | > 2000 | C (C denotes ≤5-fold) |

Continued, values first:

| IC50 [nM] | T47D pAKT S473 HTRF IC50 (H1047R): T47D (H1047R) selectivity over SKBR3 (WT) | SMILES |
| --- | --- | --- |
| 500 to 2000 | B (B denotes 20-fold≥value>5-fold) | Cc1cc(C(C)Nc2ccccc2C(=O)O)c2nc(-c3ccc4[nH]cnc4c3)cc(=O)n2c1 (stereo not drawn) [Compound 515] |
| 100 to 500 | A (A denotes >20-fold) | Cc1cc([C@@H](C)Nc2ccccc2C(=O)O)c2nc(-c3ccc4[nH]cnc4c3)cc(=O)n2c1 [Compound 516] |
| > 2000 | C (C denotes ≤5-fold) | Cc1cc([C@H](C)Nc2ccccc2C(=O)O)c2nc(-c3ccc4[nH]cnc4c3)cc(=O)n2c1 [Compound 517] |
| > 2000 | C (C denotes ≤5-fold) | CC(=O)Oc1nc2ccc(-c3cc(=O)n4cc(C)cc([C@H](C)Nc5ccccc5C(=O)O)c4n3)cn2n1 [Compound 518] |
| > 2000 | C (C denotes ≤5-fold) | Cc1cc(C(C)Nc2ccccc2C(=O)O)c2nc(-c3ccc4nc(NC(=O)C5CC5)nn4c3)cc(=O)n2c1 (stereo not drawn) [Compound 519] |
| > 2000 | C (C denotes ≤5-fold) | Cc1cc([C@@H](C)Nc2ccccc2C(=O)O)c2nc(-c3ccc4nc(NC(=O)C5CC5)nn4c3)cc(=O)n2c1 [Compound 520] |
| 500 to 2000 | B (B denotes 20-fold≥value>5-fold) | CC(=O)N1CCC(c2cc(=O)n3cc(C)cc([C@H](C)Nc4ccccc4C(=O)O)c3n2)CC1 [Compound 523] |
| 500 to 2000 | B (B denotes 20-fold≥value>5-fold) | Cc1cc([C@@H](C)Nc2ccccc2C(=O)O)c2nc([C@H]3CCOC3)cc(=O)n2c1 [Compound 537] |
